Measured values from PubChem BioAssay (NCI).
Values joined by “and” are separate entries in the source; they are usually repeats but may differ in a detail not shown here. Equal values may be shown once.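 Cells were grown in 96-well plates and exposed to each compound for 48 hours at five concentrations; endpoints were interpolated linearly between bracketing concentrations, or set to the highest concentration if not reached. GI50 = concentration required for 50% inhibition of growth. TGI is the concentration that stops growth completely.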

Columns and labels:
Assay in all cases: NCI anticancer screen, dose series, 48 h
A549 NSCLC = tested on: A549 NSCLC
OVCAR-4 ovarian = tested on: OVCAR-4 ovarian
U251 CNS = tested on: U251 CNS
SK-MEL-5 melanoma = tested on: SK-MEL-5 melanoma
SK-MEL-2 melanoma = tested on: SK-MEL-2 melanoma
SF-539 CNS = tested on: SF-539 CNS
HT29 colon = tested on: HT29 colon
HCT-116 colon = tested on: HCT-116 colon
NCI/ADR-RES ovarian = tested on: NCI/ADR-RES ovarian
PC-3 prostate = tested on: PC-3 prostate

Structure (SMILES)	TGI (A549 NSCLC) [µM]	TGI (OVCAR-4 ovarian) [µM]	TGI (U251 CNS) [µM]	TGI (SK-MEL-5 melanoma) [µM]	TGI (SK-MEL-2 melanoma) [µM]	TGI (SF-539 CNS) [µM]	TGI (HT29 colon) [µM]	TGI (HCT-116 colon) [µM]	TGI (NCI/ADR-RES ovarian)	TGI (PC-3 prostate)	GI50 (NCI/ADR-RES ovarian) [µM]	GI50 (A549 NSCLC) [µM]	GI50 (OVCAR-4 ovarian) [µM]	GI50 (U251 CNS) [µM]	GI50 (SK-MEL-5 melanoma) [µM]	GI50 (SK-MEL-2 melanoma) [µM]	GI50 (SF-539 CNS) [µM]	GI50 (HT29 colon) [µM]	GI50 (HCT-116 colon) [µM]	GI50 (PC-3 prostate) [µM]
CCC(C)(C)NS(=O)(=O)c1ccccc1	> 100	> 100	> 100	> 100	> 100	> 100	> 100	> 100												
Clc1nc(-c2ccccc2)nc(Cl)c1Cl	33.1	38.9	21.5	26.7		33.9	27.6	17	61.3 µM	24.6 µM										
COc1cc2ccc3c4cc(OC)c(OC(C)C)cc4c[n+](C)c3c2cc1OC	> 100	> 100	> 100	> 100	55.6	> 100	> 100	> 100												
CCN(CC)/[N+]([O-])=N/OCC(C)O (stereo not drawn)	> 100		> 100	> 100	> 100	> 100	> 100	> 100												
Cc1ccccc1C[P+](c1ccccc1)(c1ccccc1)c1ccccc1	> 100	9.39	> 100	1.58	68.4	> 100	14.8	> 100	> 100 µM		> 100	3.72	0.64	1.35	0.375	1.29	2.34	0.849	0.896	
CSC1SCC2C(=O)N(C)C(C(C)C)C(=O)OCC(NC(=O)c3cnc4ccccc4n3)C(=O)NC(C)C(=O)N(C)C1C(=O)N(C)C(C(C)C)C(=O)OCC(NC(=O)c1cnc3ccccc3n1)C(=O)NC(C)C(=O)N2C (stereo not drawn)					0.00126				0.222 µM and 1.16 µM and 1.41 µM	0.0132 µM and 0.0224 µM	0.0238	< 0.001	< 0.001	< 0.001			< 0.001	< 0.001		
C#CCN(Cc1nc2cc(C(F)(F)F)ccc2nc1-c1ccccc1)c1ccc(F)cc1	60.9	> 100	> 100	33.3		> 100	> 100	> 100	84.7 µM	> 100 µM	29.1	20.4	33.4	38	16.8		37.4	34.9	20.8	32
COc1cc(/C=C2\Cc3ccccc3C2=O)cc(OC)c1OC	> 100	> 100	> 100	> 100	> 100	> 100	> 100	> 100												
C/C(=N\NS(=O)(=O)c1c(C)cc(C)cc1C)c1ccc[n+]([O-])n1	> 100	44.6	> 100	> 100		27.7	36	25.7												
CC(C)(C)C1CCC(=O)C(C(O)CC2CC(=O)N(c3ccccc3)C(=O)C2)C1 (stereo not drawn)	> 100	> 100	> 100			> 100	> 100	> 100												
